Measured values reported in patent US8512970B2, “Rapid bioluminescence detection assay” (The Secretary of State for Health, priority 2009, dated 2013).
“Also recorded” adds a separate entry of the source. Where a name gives a salt, the structure may show the parent alone.

Tests used:
[1] = biological target: T1, yeast AK (AK from Saccharomyces cerevisiae) (Saccharomyces cerevisiae, UniProt P07170); assay: Distinguishing reporter adenylate kinases from yeast adenylate kinase (FIG. 7B); format: biochemical
T1 construct: purchased Sigma
T1 sequence (P07170 whole entry): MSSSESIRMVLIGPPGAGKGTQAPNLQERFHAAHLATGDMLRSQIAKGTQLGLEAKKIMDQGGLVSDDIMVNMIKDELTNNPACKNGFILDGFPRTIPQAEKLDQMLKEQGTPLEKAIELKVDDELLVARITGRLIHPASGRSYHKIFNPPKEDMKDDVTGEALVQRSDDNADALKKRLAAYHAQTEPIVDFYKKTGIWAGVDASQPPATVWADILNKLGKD

luciferase = luciferase (Photinus pyralis, UniProt P08659); assay: Effect of inhibitor on luciferase; format: biochemical
Sequence of luciferase (P08659 whole entry, species assumed): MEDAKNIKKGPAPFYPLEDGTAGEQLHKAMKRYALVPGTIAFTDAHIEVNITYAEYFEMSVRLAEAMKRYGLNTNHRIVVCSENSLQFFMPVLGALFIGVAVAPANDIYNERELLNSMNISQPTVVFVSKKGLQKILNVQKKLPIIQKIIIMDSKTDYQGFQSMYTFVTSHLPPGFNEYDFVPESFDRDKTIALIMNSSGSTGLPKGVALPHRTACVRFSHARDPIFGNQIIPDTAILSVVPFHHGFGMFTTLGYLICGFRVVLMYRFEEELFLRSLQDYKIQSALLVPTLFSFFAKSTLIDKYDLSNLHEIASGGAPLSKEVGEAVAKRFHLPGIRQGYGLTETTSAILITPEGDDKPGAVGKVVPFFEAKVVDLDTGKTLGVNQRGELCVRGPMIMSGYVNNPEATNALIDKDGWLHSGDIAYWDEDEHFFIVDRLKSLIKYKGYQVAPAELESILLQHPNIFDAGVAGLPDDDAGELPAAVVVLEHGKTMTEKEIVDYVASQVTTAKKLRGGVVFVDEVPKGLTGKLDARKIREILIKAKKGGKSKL

[2] = biological target: adenylate kinase from S. acidocaldarius (Sulfolobus acidocaldarius, UniProt P35028); assay: Inhibition of reporter adenylate kinase by Ap5a, ATP detected with luciferin/luciferase
Sequence of adenylate kinase from S. acidocaldarius (P35028 whole entry): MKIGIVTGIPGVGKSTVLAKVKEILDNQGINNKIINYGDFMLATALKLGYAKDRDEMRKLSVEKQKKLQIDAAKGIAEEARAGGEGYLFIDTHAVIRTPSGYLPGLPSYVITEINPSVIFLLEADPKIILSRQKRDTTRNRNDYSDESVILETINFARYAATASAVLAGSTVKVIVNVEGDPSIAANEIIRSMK
Method: (§1) The reporter adenylate kinases from S. acidocaldarius or T. maritima were purified as described previously. Rabbit myokinase (muscle adenylate kinase) was obtained from Sigma. 100 ng of each enzyme was incubated with the inhibitor at the concentrations shown in reaction buffer (15 mM MgAc, 10 mM tris, 1 mM EDTA pH 7.75) for 5 minutes. ADP was added to a final concentration of 70 μM and the reaction incubated before addition of luciferin and luciferase.

[3] = biological target: T2, adenylate kinase from T. maritima (Thermotoga maritima, UniProt Q9X1I8); assay: as above
T2 sequence (Q9X1I8 1-220): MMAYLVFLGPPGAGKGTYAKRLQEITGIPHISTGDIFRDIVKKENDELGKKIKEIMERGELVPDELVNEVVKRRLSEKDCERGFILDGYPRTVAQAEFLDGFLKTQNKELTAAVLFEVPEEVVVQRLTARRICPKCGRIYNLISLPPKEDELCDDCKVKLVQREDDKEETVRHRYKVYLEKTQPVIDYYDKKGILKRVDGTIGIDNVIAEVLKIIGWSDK
Method: as §1

[4] = biological target: T3, Rabbit myokinase (muscle adenylate kinase) (Oryctolagus cuniculus, UniProt P00569); assay: Inhibition of non-reporter (endogenous) tissue kinase by Ap5a, ATP detected with luciferin/luciferase
T3 sequence (P00569 1-194): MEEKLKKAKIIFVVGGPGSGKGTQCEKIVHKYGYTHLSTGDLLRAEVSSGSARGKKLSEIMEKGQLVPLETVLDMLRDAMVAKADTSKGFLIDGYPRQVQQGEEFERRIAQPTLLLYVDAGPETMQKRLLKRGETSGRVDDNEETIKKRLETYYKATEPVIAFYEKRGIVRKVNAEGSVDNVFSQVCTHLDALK
Method: as §1

Nc1ncnc2c1ncn2[C@@H]1O[C@H](COP(=O)(O)OP(=O)(O)OP(=O)(O)OP(=O)(O)OC[C@H]2O[C@@H](n3cnc4c(N)ncnc43)[C@H](O)[C@@H]2O)[C@@H](O)[C@H]1O [Ap4A, Diadenosine tetraphosphate]
distinguishing bacterial and archaeal reporter adenylate kinases from enzyme of fungal origin (yeast AK) [1]: do not allow for an assay to distinguish

Nc1ncnc2c1ncn2[C@@H]1O[C@H](COP(=O)(O)OP(=O)(O)OP(=O)(O)OP(=O)(O)OP(=O)(O)OC[C@H]2O[C@@H](n3cnc4c(N)ncnc43)[C@H](O)[C@@H]2O)[C@@H](O)[C@H]1O [Ap5A, Diadenosine pentaphosphate pentasodium salt]
effect on the activity of the luciferase (luciferase): does not have a detrimental effect | distinguishing bacterial and archaeal reporter adenylate kinases from enzyme of fungal origin (yeast AK) [1]: can still be used to distinguish; also recorded: discriminates reporter kinase from non-reporter kinase | IC50 [2]: 10.4 µM | IC50 [3]: 4.3 µM | IC50 [4]: 0.06 µM

Diadenosine hexaphosphate [Ap6A]
distinguishing bacterial and archaeal reporter adenylate kinases from enzyme of fungal origin (yeast AK) [1]: do not allow for an assay to distinguish
